Assay results published in publication PMC13366236 (Acta Pharmaceutica Sinica. B, 2025).
Marks after values point to notes of the source that are not given here.

Key:
mTOR = mTOR (Homo sapiens, UniProt P42345); test: mTOR kinase inhibition, Lance Ultra assay; format: biochemical; conditions: for IC50: mTOR, IC50, mean ± SD of triplicate measurements
HCT-116 cells = test: Cell viability CCK-8 assay; format: cell-based; conditions: Homo sapiens, HCT-116, 48 h, read-out: Antiproliferative IC50 ± SD
MDA-MB-231 cells [1] = test: Cell viability CCK-8 assay; format: cell-based, human; conditions: Homo sapiens, MDA-MB-231, 48 h, read-out: Antiproliferative IC50 ± SD
MCF-7 cells = test: Cell viability CCK-8 assay; format: cell-based; conditions: Homo sapiens, MCF7, 48 h, read-out: Antiproliferative IC50 ± SD
MDA-MB-436 cells = test: Cell viability CCK-8 assay; format: cell-based; conditions: Homo sapiens, MDA-MB-436, 48 h, read-out: Antiproliferative IC50 ± SD
MDA-MB-231 xenograft = MDA-MB-231 xenograft tumor model; format: in vivo, female BALB/c nude mice; conditions: i.v., Day 15; for Tumor size: mean ± SEM
MDA-MB-231 cells [2] = test: Colony formation assay; format: cell-based, human; conditions: MDA-MB-231, 0.05, 0.1, 0.5 μmol/L
MDA-MB-231 cells [3] = test: Apoptosis, Annexin V-AF647/7AAD flow cytometry; format: cell-based, human; conditions: MDA-MB-231, 2 μmol/L, 24 h
MDA-MB-231 cells [4] = test: Wound healing; format: cell-based, human; conditions: MDA-MB-231, 0.25, 0.5, 1.0 μmol/L, concentration-dependent

SMILES | IC50 (mTOR) [µM] | IC50 (MDA-MB-231 cells [1]) [µM] | further results
C[C@H](N)C(=O)Nc1ccccc1/N=c1\cc(-c2ccc3c(c2)OCCO3)oc2c([N+](=O)[O-])cccc12 [Compound 5q, (S,E)-2-amino-N-(2-((2-(2,3-dihydrobenzo[b][1,4]dioxin-6-yl)-8-nitro-4H-chromen-4-ylidene)amino)phenyl)propanamide] | > 10 |  | 
C[C@H](N)C(=O)Nc1ccccc1/N=c1\cc(-c2ccc3c(c2)OCCO3)oc2c(N)cccc12 [Compound 5r, (S,E)-2-amino-N-(2-((8-amino-2-(2,3-dihydrobenzo[b][1,4]dioxin-6-yl)-4H-chromen-4-ylidene)amino)phenyl)propanamide] | > 10 |  | 
COc1ccc2/c(=N/c3ccccc3NC(=O)[C@H](C)N)cc(-c3ccc4c(c3)OCCO4)oc2c1 [Compound 5s, (S,E)-2-amino-N-(2-((2-(2,3-dihydrobenzo[b][1,4]dioxin-6-yl)-7-methoxy-4H-chromen-4-ylidene)amino)phenyl)propanamide] | > 10 |  | 
COc1ccc2/c(=N/c3ccccc3NC(=O)CN)cc(-c3ccc4c(c3)OCCO4)oc2c1 [Compound 5t, (E)-2-amino-N-(2-((2-(2,3-dihydrobenzo[b][1,4]dioxin-6-yl)-7-methoxy-4H-chromen-4-ylidene)amino)phenyl)acetamide] | > 10 |  | 
C[C@H](N)C(=O)Nc1ccccc1/N=c1\cc(-c2ccc3c(c2)OCCO3)oc2cc(F)ccc12 [Compound 5x, (S,E)-2-amino-N-(2-((2-(2,3-dihydrobenzo[b][1,4]dioxin-6-yl)-7-fluoro-4H-chromen-4-ylidene)amino)phenyl)propanamide] | > 10 |  | 
NCC(=O)Nc1ccccc1/N=c1\cc(-c2ccc3c(c2)OCCO3)oc2cc(F)ccc12 [Compound 5y, (E)-2-amino-N-(2-((2-(2,3-dihydrobenzo[b][1,4]dioxin-6-yl)-7-fluoro-4H-chromen-4-ylidene)amino)phenyl)acetamide] | > 10 |  | 
CCNc1nc2ccc(-c3c/c(=N\c4ccccc4NC(=O)CCN)c4ccccc4o3)cc2o1 [Compound 15, (E)-3-amino-N-(2-((2-(2-(ethylamino)benzo[d]oxazol-6-yl)-4H-chromen-4-ylidene)amino)phenyl)propanamide] | 2.66 ± 0.38 |  | 
NCCC(=O)Nc1ccccc1/N=c1\cc(-c2ccc3oc(N)nc3c2)oc2ccccc12 [Compound 21, (E)-3-amino-N-(2-((2-(2-aminobenzo[d]oxazol-5-yl)-4H-chromen-4-ylidene)amino)phenyl)propanamide] | 0.696 ± 0.0582 |  | fold decrease in kinase inhibitory activity (mTOR) (mTOR; vs 12a): 15.4 fold
COc1cccc2c1C(=O)c1c(O)c3c(c(O)c1C2=O)C[C@@](O)(C(=O)CO)C[C@@H]3O[C@H]1C[C@H](N)[C@H](O)[C@H](C)O1 [Doxorubicin, reference compound] |  | 0.0756 | T/C (MDA-MB-231 xenograft; 2.5 mg/kg, Q7D × 2): 31.82%; TGI (MDA-MB-231 xenograft; 2.5 mg/kg, Q7D × 2): 68.18 ^d %; Tumor size (MDA-MB-231 xenograft; 2.5 mg/kg, Q7D × 2): 115.17 ± 32.95 mm^3
CO[C@H]1C[C@@H]2CC[C@@H](C)[C@@](O)(O2)C(=O)C(=O)N2CCCC[C@H]2C(=O)O[C@H]([C@H](C)C[C@@H]2CC[C@@H](OCCO)[C@H](OC)C2)CC(=O)[C@H](C)/C=C(\C)[C@@H](O)[C@@H](OC)C(=O)[C@H](C)C[C@H](C)/C=C/C=C/C=C/1C [Everolimus, reference compound] |  | 2.29 ± 0.0763 | 
CC(=O)O[C@H]1C(=O)[C@@]2(C)[C@H]([C@H](OC(=O)c3ccccc3)[C@]3(O)C[C@H](OC(=O)[C@H](O)[C@@H](NC(=O)c4ccccc4)c4ccccc4)C(C)=C1C3(C)C)[C@]1(OC(C)=O)CO[C@@H]1C[C@@H]2O [Paclitaxel, reference compound] |  | 3.862 ± 0.0132 | 

Second part, led by results:

IC50 (mTOR) [µM] | IC50 (MDA-MB-231 cells [1]) [µM] | SMILES | further results
3.37 ± 0.334 |  | COCCC(=O)Nc1ccccc1/N=c1\cc(-c2ccc3nc(N)oc3c2)oc2ccccc12 [Compound 12b, (E)-N-(2-((2-(2-aminobenzo[d]oxazol-6-yl)-4H-chromen-4-ylidene)amino)phenyl)-3-methoxypropanamide] | 
0.473 ± 0.0424 | 0.104 ± 0.0033 | CNCCC(=O)Nc1ccccc1/N=c1\cc(-c2ccc3nc(N)oc3c2)oc2ccccc12 [Compound 12c, (E)-N-(2-((2-(2-aminobenzo[d]oxazol-6-yl)-4H-chromen-4-ylidene)amino)phenyl)-3-(methylamino)propanamide] | IC50 (HCT-116 cells): 0.9005 ± 0.0055 µM; IC50 (MCF-7 cells): 1.316 ± 0.0064 µM; IC50 (MDA-MB-436 cells): 0.566 ± 0.0091 µM
3.39 ± 0.164 |  | CS(=O)(=O)NCCC(=O)Nc1ccccc1/N=c1\cc(-c2ccc3nc(N)oc3c2)oc2ccccc12 [Compound 12d, (E)-N-(2-((2-(2-aminobenzo[d]oxazol-6-yl)-4H-chromen-4-ylidene)amino)phenyl)-3-(methylsulfonamido)propanamide] | 
2.61 ± 0.201 |  | CN(C)CCC(=O)Nc1ccccc1/N=c1\cc(-c2ccc3nc(N)oc3c2)oc2ccccc12 [Compound 12e, (E)-N-(2-((2-(2-aminobenzo[d]oxazol-6-yl)-4H-chromen-4-ylidene)amino)phenyl)-3-(dimethylamino)propanamide] | 
> 10 |  | CCN(CC)CCC(=O)Nc1ccccc1/N=c1\cc(-c2ccc3nc(N)oc3c2)oc2ccccc12 [Compound 12f, (E)-N-(2-((2-(2-aminobenzo[d]oxazol-6-yl)-4H-chromen-4-ylidene)amino)phenyl)-3-(diethylamino)propanamide] | 
> 10 |  | Nc1nc2ccc(-c3c/c(=N\c4ccccc4NC(=O)CCN4CCCC4)c4ccccc4o3)cc2o1 [Compound 12g, (E)-N-(2-((2-(2-aminobenzo[d]oxazol-6-yl)-4H-chromen-4-ylidene)amino)phenyl)-3-(pyrrolidin-1-yl)propanamide] | 
> 10 |  | Nc1nc2ccc(-c3c/c(=N\c4ccccc4NC(=O)CCN4CCOCC4)c4ccccc4o3)cc2o1 [Compound 12h, (E)-N-(2-((2-(2-aminobenzo[d]oxazol-6-yl)-4H-chromen-4-ylidene)amino)phenyl)-3-morpholinopropanamide] | 
0.165 ± 0.0081 | 0.285 ± 0.425 | Nc1nc2ccc(-c3c/c(=N\c4ccccc4NC(=O)C4CCNC4)c4ccccc4o3)cc2o1 (stereo not shown) [Compound 12i, (E)-N-(2-((2-(2-aminobenzo[d]oxazol-6-yl)-4H-chromen-4-ylidene)amino)phenyl)pyrrolidine-3-carboxamide] | IC50 (HCT-116 cells): 313.2 ± 0.0057 µM; IC50 (MCF-7 cells): 1.487 ± 0.0028 µM
0.166 ± 0.0063 | 0.125 ± 0.0059 | NCCC(=O)Nc1ccccc1/N=c1\cc(-c2ccc3nc(N)oc3c2)oc2ccc(F)cc12 [Compound 12k, (E)-3-amino-N-(2-((2-(2-aminobenzo[d]oxazol-6-yl)-6-fluoro-4H-chromen-4-ylidene)amino)phenyl)propanamide] | IC50 (HCT-116 cells): 0.3079 ± 0.0022 µM; IC50 (MCF-7 cells): 0.211 ± 0.0877 µM; IC50 (MDA-MB-436 cells): 0.112 ± 0.0623 µM
1.24 ± 0.0861 |  | N#Cc1ccc2oc(-c3ccc4nc(N)oc4c3)c/c(=N\c3ccccc3NC(=O)CCN)c2c1 [Compound 12l, (E)-3-amino-N-(2-((2-(2-aminobenzo[d]oxazol-6-yl)-6-cyano-4H-chromen-4-ylidene)amino)phenyl)propanamide] | 
0.0402 ± 0.001 | > 10 | NCCC(=O)Nc1ccccc1/N=c1\cc(-c2ccc3nc(N)oc3c2)oc2cc(O)ccc12 [Compound 12m, (E)-3-amino-N-(2-((2-(2-aminobenzo[d]oxazol-6-yl)-7-hydroxy-4H-chromen-4-ylidene)amino)phenyl)propanamide] | IC50 (HCT-116 cells): > 10 µM; IC50 (MCF-7 cells): > 10 µM; IC50 (MDA-MB-436 cells): > 10 µM
0.0263 ± 0.0002 | 1.77 ± 0.473 | NCCC(=O)Nc1ccccc1/N=c1\cc(-c2ccc3nc(N)oc3c2)oc2ccc(O)cc12 [Compound 12n, (E)-3-amino-N-(2-((2-(2-aminobenzo[d]oxazol-6-yl)-6-hydroxy-4H-chromen-4-ylidene)amino)phenyl)propanamide] | IC50 (HCT-116 cells): 1.57 ± 0.132 µM; fold more potent than 12a (mTOR IC50) (mTOR; vs 12a): 1.72 fold; IC50 (MCF-7 cells): 0.547 ± 0.679 µM
9.34 ± 0.748 |  | NCCC(=O)Nc1ccccc1/N=c1\cc(-c2ccc3nc(N)oc3c2)oc2cc(Br)ccc12 [Compound 12o, (E)-3-amino-N-(2-((2-(2-aminobenzo[d]oxazol-6-yl)-7-bromo-4H-chromen-4-ylidene)amino)phenyl)propanamide] | 
 | 0.179 ± 0.238 | CC(C)n1nc(-c2ccc3oc(N)nc3c2)c2c(N)ncnc21 [MLN-0128, reference compound] | 
 | > 10 | Oc1cccc(-c2nc(N3CCOCC3)c3oc4ncccc4c3n2)c1 [PI-103, reference compound] | IC50 (HCT-116 cells): > 10 µM; colony formation ability (MDA-MB-231 cells [2]): significantly inhibited; T/C (MDA-MB-231 xenograft; 20 mg/kg, Q3D × 6): 61.36%; TGI (MDA-MB-231 xenograft; 20 mg/kg, Q3D × 6): 38.64 ^d %; Tumor size (MDA-MB-231 xenograft; 20 mg/kg, Q3D × 6): 256.59 ± 40.06 mm^3; percentage of total apoptotic cells (MDA-MB-231 cells [3]): 4.47%; IC50 (MCF-7 cells): 2.79 ± 0.347 µM; IC50 (MDA-MB-436 cells): > 10 µM; anti-migration effect (MDA-MB-231 cells [4]): significantly inhibit the migration
